Literature values in patent US20220142894A1, “A PROCESS OF COLORING KERATINOUS MATERIAL COMPRISING THE USE OF AN ORGANOSILICON COMPOUND, AN EFFECT PIGMENT, AND A SEALING REAGENT V” (Henkel AG & Co. KGaA, priority 2019, published 2022).

Details: 25° C.

| SMILES | solubility in water (in words) | solubility in water |
| --- | --- | --- |
| O=C([O-])C1=NN(c2ccc(S(=O)(=O)[O-])cc2)C(=O)C1N=Nc1ccc(S(=O)(=O)[O-])cc1.[Na+].[Na+].[Na+] (centres unmarked) [Acid Yellow 23, trisodium salt of 4,5-dihydro-5-oxo-1-(4-sulfophenyl)-4-((4-sulfophenyl)azo)-1H-pyrazole-3-carboxylic acid] | highly soluble |  |
| O=S(=O)([O-])c1ccc(N=Nc2c(O)ccc3ccccc23)cc1.[Na+] [Acid Orange 7, sodium salt of 4-[(2-hydroxy-1-naphthyl)azo]benzene sulphonate] |  | more than 7 g/L |
| O=C([O-])c1c(Cl)c(Cl)c(Cl)c(Cl)c1-c1c2c(Br)cc(=O)c(Br)c-2oc2c(Br)c(O)cc(Br)c12.O=C([O-])c1c(Cl)c(Cl)c(Cl)c(Cl)c1-c1c2c(Br)cc(=O)c(Br)c-2oc2c(Br)c(O)cc(Br)c12.[Na+].[Na+] [Acid Red 92, disodium salt of 3,4,5,6-tetrachloro-2-(1,4,5,8-tetrabromo-6-hydroxy-3-oxoxanthen-9-yl)benzoic acid] |  | greater than 10 g/L |
| Nc1cc(S(=O)(=O)[O-])cc2cc(S(=O)(=O)[O-])c(N=Nc3ccccc3)c(O)c12.[Na+].[Na+] [Acid Red 33, disodium salt of 5-amino-4-hydroxy-3-(phenylazo)-naphthalene-2,7-disulphonate] |  | 2500 µg/mL |
| CCN(Cc1cccc(S(=O)(=O)[O-])c1)c1ccc(C(=C2C=CC(=[N+](CC)Cc3cccc(S(=O)(=O)[O-])c3)C=C2)c2ccccc2S(=O)(=O)[O-])cc1.[Na+].[Na+] [Acid Blue 9] |  | more than 20 % by weight |
